Consider 34 molecules from patent US10093623B2, “Cyclic amides as MetAP-2 inhibitors” (MERCK PATENT GmbH, priority 2012, dated 2018).

In this experiment the target is MetAP-2 (Homo sapiens, UniProt P50579). Description: MetAP-2 activity measurement (coupled enzymatic reactions, Met-Arg-Ser substrate, dianisidine detection at 450 nm). The format is biochemical. The conditions noted are these: Inhibition of MetAP-2; read-out: IC50 enzyme. As for the experimental part: MetAP-2 Activity Measurement
The MetAP-2 activity is determined by coupling enzymatic reactions. The tripeptide Met-Arg-Ser (MAS) is employed as substrate. The methionine liberated is firstly converted into Metox and H2O2 by L-aminooxidase (AAO). In the second step, the peroxidase (POD) with the aid of the H2O2 catalyses the oxidation of the leukodye dianisidine to dianisidineox, the increase of which is detected photometrically at 450 nm.
MetAP-2 activity can be recorded continuously as kinetics. The reaction scheme illustrates that one mol of dianisidineox is formed per mol of methionene. The MetAP-2 enzyme activity can therefore be calculated directly as A absorption per time unit. Qualification of the MetAP-2 activity (mol of Met/time unit) is possible with the aid of the dianisidineox extinction coefficient.
The change in extinction per time unit is depicted graphically and a slope calculation is carried out in the visually linear region of the reaction.

MetAP-2, sequence (P50579 whole entry, species assumed): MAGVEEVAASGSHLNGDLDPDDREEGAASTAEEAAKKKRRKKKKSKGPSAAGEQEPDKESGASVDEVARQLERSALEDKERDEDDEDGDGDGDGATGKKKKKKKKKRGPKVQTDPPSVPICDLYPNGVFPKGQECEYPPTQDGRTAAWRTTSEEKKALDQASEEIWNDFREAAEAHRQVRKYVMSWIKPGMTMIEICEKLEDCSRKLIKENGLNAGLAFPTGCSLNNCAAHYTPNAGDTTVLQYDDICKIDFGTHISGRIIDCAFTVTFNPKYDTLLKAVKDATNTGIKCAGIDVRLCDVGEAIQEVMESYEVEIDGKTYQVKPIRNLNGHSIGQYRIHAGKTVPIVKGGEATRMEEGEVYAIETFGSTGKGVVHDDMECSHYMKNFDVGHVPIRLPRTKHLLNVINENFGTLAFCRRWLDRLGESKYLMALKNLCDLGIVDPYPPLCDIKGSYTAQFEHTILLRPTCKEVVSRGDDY

In the case of `CC(=O)NC1CCCC(N2CCC(O)(C(=O)NCc3cc(F)cc(Cl)c3)C2=O)C1` (stereo not shown) [A126, N-(3-Chloro-5-fluorobenzyl)-1-(3-acetylaminocyclohexyl)-3-hydroxy-2-oxopyrrolidine-3-carboxamide], the IC50 was 1000 to 10000 nM.

On to `CC(C)NC(=O)c1cc2cc(N3CC[C@@](O)(C(=O)NCc4cc(F)cc(Cl)c4)C3=O)ccc2[nH]1` [B89, N-Isopropyl-5-[(R)-3-(3-chloro-5-fluorobenzylcarbamoyl)-3-hydroxy-2-oxopyrrolidin-1-yl]-1H-indole-2-carboxamide], for which the IC50 was more than 10000 nM.

Consider `O=C1N(CC2CCCCC2)CCC[C@]1(O)CNCc1cc(F)cc(Cl)c1` [B63, (S)-3-[(3-Chloro-5-fluorobenzylamino)methyl]-1-cyclohexylmethyl-3-hydroxy-piperidin-2-one], for which the IC50 was 10 to 1000 nM.

For `O=C1CCc2cc(N3CC[C@](O)(C(=O)NCCc4cc(F)cc(Cl)c4)C3=O)ccc2N1` [A149, N-[2-(3-Chloro-5-fluorophenyl)-ethyl]-(S)-3-hydroxy-2-oxo-1-(2-oxo-1,2,3,4-tetrahydroquinolin-6-yl)pyrrolidine-3-carboxamide], the IC50 was in the range of 10 to 1000 nM.

As to `O=C(c1cccc(N2CC[C@](O)(C(=O)NCc3cc(F)cc(Cl)c3)C2=O)c1)N1CCCCC1` [A95, N-(3-Chloro-5-fluorobenzyl)-(S)-3-hydroxy-2-oxo-1-[3-(piperidin-1-carbonyl)phenyl]pyrrolidine-3-carboxamide], the IC50 is 10 to 1000 nM.

Turning to `O=C(NCc1cc(F)cc(Cl)c1)C1(O)CCN(Cc2c[nH]cn2)C1=O` (stereo not shown) [A279, N-(3-Chloro-5-fluorobenzyl)-3-hydroxy-1-(1H-imidazol-4-ylmethyl)-2-oxopyrrolidine-3-carboxamide], the IC50 is 1000 to 10000 nM.

`OC1(CNCc2cc(F)cc(Cl)c2)CCCN(Cc2ccccc2)C1` (stereo not shown) [B19, 1-Benzyl-3-[(3-chloro-5-fluorobenzylamino)methyl]-piperidin-3-ol]: the IC50 is more than 10000 nM.

Take `O=C(NCc1cc(F)cc(Cl)c1)[C@]1(O)CCN(c2ccc3[nH]cc(C(F)(F)F)c3c2)C1=O` [B73, N-(3-Chloro-5-fluorobenzyl)-(R)-3-hydroxy-2-oxo-1-(3-trifluoro-methyl-1H-indol-5-yl)pyrrolidine-3-carboxamide]: the IC50 was more than 10000 nM.

Take `O=C1N(Cc2ccccc2)CCC1(O)C(=O)N1Cc2ccccc2C1` (stereo not shown) [A268, 1-benzyl-3-(1,3-dihydroisoindole-2-carbonyl)-3-hydroxypyrrolidin-2-one]: the IC50 is more than 10000 nM.

With `O=C(NCc1ccccn1)[C@@]1(O)CCCN(Cc2cccc(F)c2F)C1=O` [A259, N-(Pyridin-2-ylmethyl)-(S)-1-(2,3-difluorobenzyl)-3-hydroxy-2-oxopiperidine-3-carboxamide], the half-maximal inhibitory concentration (IC50) is more than 10000 nM.

For `N#Cc1c[nH]c2ccc(N3CC[C@@](O)(C(=O)NCc4cc(F)cc(Cl)c4)C3=O)cc12` [A224, N-(3-Chloro-5-fluorobenzyl)-(R)-1-(3-cyano-1H-indol-5-yl)-3-hydroxy-2-oxopyrrolidine-3-carboxamide], the concentration for half-maximal inhibition (IC50) lay in the range of 1000 to 10000 nM.

Take `O=C(NCc1cc(F)cc(Cl)c1)C1(O)CCCN(Cc2ccccc2)C1` (stereo not shown) [B16, N-(3-Chloro-5-fluorobenzyl)-1-benzyl-3-hydroxypiperidine-3-carboxamide]: the IC50 lay in the range of 1000 to 10000 nM.

`O=C1CCc2cc(N3CC[C@](O)(C(=O)NCc4c(F)cc(F)cc4F)C3=O)ccc2N1` [A236, N-(2,4,6-Trifluorobenzyl)-(S)-3-hydroxy-2-oxo-1-(2-oxo-1,2,3,4-tetrahydroquinolin-6-yl)-pyrrolidine-3-carboxamide]: the half-maximal inhibitory concentration (IC50) was 10 to 1000 nM.

Consider `O=C1NCCc2cc(N3CC[C@@](O)(C(=O)NCc4cc(F)cc(Cl)c4)C3=O)ccc21` [A105, N-(3-Chloro-5-fluorobenzyl)-(R)-3-hydroxy-2-oxo-1-(1-oxo-1,2,3,4-tetrahydroisoquinolin-6-yl)pyrrolidine-3-carboxamide], for which the IC50 is more than 10000 nM.

For `O=C(NCc1cc(F)cc(Cl)c1)C1(O)CCN(c2cnc3[nH]c(C(F)(F)F)cc3c2)C1=O` (stereo not shown) [B76, N-(3-Chloro-5-fluorobenzyl)-3-hydroxy-2-oxo-1-(2-trifluoro-methyl-1H-pyrrolo[2,3-b]pyridin-5-yl)pyrrolidine-3-carboxamide], the IC50 lay within 10 to 1000 nM.

For the molecule “(S)-3-(1,1-Dioxo-1l6- thiomorpholine-4-carbonyl)-3- hydroxy-1-phenylpyrrolidin-2-one [A56]”, the half-inhibitory concentration (IC50) is more than 10000 nM.

In the case of `O=C(NCCCn1ccnc1)[C@@]1(O)CCN(c2ccccc2)C1=O` [A58, N-(3-Imidazol-1-ylpropyl)-(S)-3-hydroxy-2-oxo-1-phenylpyrrolidine-3-carboxamide], the IC50 is more than 10000 nM.

For `O[C@]1(CNCc2ccc(F)cc2)CCCN(Cc2ccccc2)C1` [B21, (S)-1-Benzyl-3-[(4-fluorobenzylamino)methyl]-piperidin-3-ol], the IC50 was more than 10000 nM.

Take `O=C(NCc1cc(F)cc(Cl)c1)[C@]1(O)CCN(c2cccc(NS(=O)(=O)C3CC3)c2)C1=O` [A85, N-(3-Chloro-5-fluorobenzyl)-(R)-1-(3-cyclopropanesulfonylamino-phenyl)-3-hydroxy-2-oxo-pyrrolidine-3-carboxamidee]: the IC50 is more than 10000 nM.

Take `O=C1CCc2cc(N3CC[C@](O)(C(=O)NCc4cc(F)ccc4F)C3=O)ccc2N1` [B24, N-(2,5-Difluorobenzyl)-(S)-3-hydroxy-2-oxo-1-(2-oxo-1,2,3,4-tetrahydroquinolin-6-yl)-pyrrolidine-3-carboxamide]: the IC50 lay within 10 to 1000 nM.

For the molecule `O=C(NCc1cc(F)cc(Cl)c1)C1(O)CCCN(c2cc(C(F)(F)F)ccc2F)C1=O` (stereo not shown) [B67, N-(3-Chloro-5-fluorobenzyl)-1-(2-fluoro-5-trifluoromethyl-phenyl)-3-hydroxy-2-oxo-piperidine-3-carboxamide], the IC50 lay within 1000 to 10000 nM.

As for `O=C(NCc1cc(F)cc(Cl)c1)C1(O)CCN([C@H]2CCC[C@H](O)[C@@H]2O)C1=O` (stereo partly drawn) [A125, N-(3-Chloro-5-fluorobenzyl)-1-((1S,2R,3S)-2,3-dihydroxy-cyclohexyl)-3-hydroxy-2-oxo-pyrrolidine-3-carboxamide], the IC50 lay in the range of 1000 to 10000 nM.

Regarding `O=C(NCCc1cccc(F)c1)C1(O)CCN(c2ccc3[nH]ccc3c2)C1=O` (stereo not shown) [A212, N-[2-(3-Fluorophenyl)ethyl]-3-hydroxy-1-(1H-indol-5-yl)-2-oxo-pyrrolidine-3-carboxamide], the IC50 is 10 to 1000 nM.

With `O=C(NCc1cc(F)cc(Cl)c1)C1(O)CCN(C[C@H]2CC[C@@H](C(=O)O)CC2)C1=O` (stereo partly shown) [A226, 4-[3-(3-Chloro-5-fluorobenzyl-carbamoyl)-3-hydroxy-2-oxo-pyrrolidin-1-ylmethyl]cyclo-hexanecarboxylic acid], the concentration for half-maximal inhibition (IC50) is 1000 to 10000 nM.

On to `CC(C)(C)OC(=O)N1CC(CN2CCC(O)(C(=O)NCc3cc(F)cc(Cl)c3)C2=O)C1` (stereo not shown) [A213, tert-Butyl 3-[3-(3-chloro-5-fluorobenzylcarbamoyl)-3-hydroxy-2-oxopyrrolidin-1-yl-methyl]-azetidine-1-carboxylate], for which the IC50 fell in the range of 1000 to 10000 nM.

Take `O=C1COc2cc(N3CC[C@@](O)(C(=O)NCc4cc(F)cc(Cl)c4)C3=O)ccc2N1` [A198, N-(3-Chloro-5-fluorobenzyl)-(R)-3-hydroxy-2-oxo-1-(3-oxo-3,4-dihydro-2H-benzo-1,4-oxazin-7-yl)pyrrolidine-3-carboxamide]: the half-maximal inhibitory concentration (IC50) is more than 10000 nM.

As for `CCC(=O)Nc1ccc(N2CC[C@@](O)(C(=O)NCc3cc(F)cc(Cl)c3)C2=O)cn1` [A172, N-(3-Chloro-5-fluorobenzyl)-(R)-3-hydroxy-2-oxo-1-(6-propionylaminopyridin-3-yl)-pyrrolidine-3-carboxamide], the IC50 lay in the range of 1000 to 10000 nM.

In the case of `CCS(=O)(=O)Nc1cccc(N2CC[C@](O)(C(=O)NCc3cc(F)cc(Cl)c3)C2=O)c1` [A79, N-(3-Chloro-5-fluorobenzyl)-(S)-1-(3-ethanesulfonylaminophenyl)-3-hydroxy-2-oxopyrrolidine-3-carboxamide], the IC50 was 10 to 1000 nM.

For the molecule `O=C(NCc1cc(F)cc(Cl)c1)C1(O)CCN(C[C@H]2CCCO2)C1=O` (stereo partly drawn) [A225, N-(3-Chloro-5-fluorobenzyl)-3-hydroxy-2-oxo-1-[(R)-1-(tetrahydrofuran-2-yl)methyl]-pyrrolidine-3-carboxamide], the IC50 was in the range of 1000 to 10000 nM.

On to `CN(C)CCCNC(=O)[C@@]1(O)CCN(c2ccccc2)C1=O` [A64, N-(3-Dimethylaminopropyl)-(S)-3-hydroxy-2-oxo-1-phenylpyrrolidine-3-carboxamide], for which the IC50 was more than 10000 nM.

Turning to `O=C1CCc2cc(N3CC[C@](O)(C(=O)NCc4cccc(F)c4)C3=O)ccc2N1` [B56, N-(3-Fluorobenzyl)-(S)-3-hydroxy-2-oxo-1-(2-oxo-1,2,3,4-tetrahydroquinolin-6-yl)-pyrrolidine-3-carboxamide], the IC50 was 10 to 1000 nM.

For the molecule `O=C(NCc1cc(F)cc(Cl)c1)C1(O)CCN(c2cnc3[nH]cnc3c2)C1=O` (stereo not shown) [B35, N-(3-Chloro-5-fluorobenzyl)-3-hydroxy-1-(3H-imidazo[4,5-b]-pyridin-6-yl)-2-oxopyrrolidine-3-carboxamide], the IC50 was in the range of 10 to 1000 nM.

For `O=C(NCc1cc(F)cc(Cl)c1)C1(O)CCN(c2cnn(C3CCNCC3)c2)C1=O` (stereo not shown) [A180, N-(3-Chloro-5-fluorobenzyl)-3-hydroxy-2-oxo-1-(1-piperidin-4-yl-1H-pyrazol-4-yl)pyrrolidine-3-carboxamide], the IC50 lay in the range of 10 to 1000 nM.

For the molecule `NS(=O)(=O)c1cccc(N2CCC(O)(C(=O)NCc3cc(F)cc(Cl)c3)C2=O)c1` (stereo not shown) [B107, N-(3-Chloro-5-fluorobenzyl)-3-hydroxy-2-oxo-1-(3-sulfamoyl-phenyl)pyrrolidine-3-carboxamide], the IC50 is 10 to 1000 nM.
